In publication PMC9225712, “Rational design of biodegradable sulphonamide candidates treating septicaemia by synergistic dual inhibition of COX-2/PGE2 axis and DHPS enzyme” (Journal of Enzyme Inhibition and Medicinal Chemistry, 2022):

Legend:
[1] = target: T1, human recombinant COX-2 (Homo sapiens, UniProt P35354); experiment: In vitro COX-2 enzymatic assay (Cayman kit 560131); conditions: for SI COX-1/COX-2: COX-2 selectivity index: COX-1 IC50/COX-2 IC50
T1 sequence (P35354 18-604): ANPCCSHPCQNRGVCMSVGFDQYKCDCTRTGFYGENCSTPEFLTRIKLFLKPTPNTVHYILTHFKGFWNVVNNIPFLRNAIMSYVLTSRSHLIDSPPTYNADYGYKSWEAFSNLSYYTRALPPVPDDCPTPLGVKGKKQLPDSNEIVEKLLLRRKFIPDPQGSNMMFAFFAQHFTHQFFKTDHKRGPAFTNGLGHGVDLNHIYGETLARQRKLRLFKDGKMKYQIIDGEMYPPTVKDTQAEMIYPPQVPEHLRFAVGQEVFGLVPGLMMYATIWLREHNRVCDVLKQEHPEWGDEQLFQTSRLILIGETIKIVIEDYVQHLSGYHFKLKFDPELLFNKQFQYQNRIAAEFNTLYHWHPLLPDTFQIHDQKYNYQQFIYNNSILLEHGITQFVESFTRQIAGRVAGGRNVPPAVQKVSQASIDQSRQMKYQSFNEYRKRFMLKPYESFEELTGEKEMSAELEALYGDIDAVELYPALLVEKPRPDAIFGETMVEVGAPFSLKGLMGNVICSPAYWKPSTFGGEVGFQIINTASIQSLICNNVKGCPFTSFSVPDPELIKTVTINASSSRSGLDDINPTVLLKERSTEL

[2] = tested on: Pseudomonas aeruginosa (RCMB 0100243); experiment: Inhibition zone, agar cup diffusion; conditions: RCMB0100243, 24 h, read-out: inhibition zones (IZ) P.aeruginosa
[3] = tested on: Streptococcus mutans (RCMB 0100172); experiment: Inhibition zone, agar cup diffusion; conditions: RCMB0100172, 24 h, read-out: inhibition zones (IZ) S. mutans
[4] = tested on: Shigella dysenteriae (RCMB 0100542); experiment: Inhibition zone, agar cup diffusion; format: cell-based; conditions: RCMB0100542, 24 h, read-out: inhibition zones (IZ) S. dysenteriae
[5] = tested on: Escherichia coli (RCMB 010052); experiment: Inhibition zone, agar cup diffusion; conditions: RCMB010052, 24 h, read-out: inhibition zones (IZ) E.coli
[6] = target: T2, ovine COX-1 (Ovis aries, UniProt P05979); experiment: In vitro COX-1 enzymatic assay (Cayman kit 560131); format: biochemical; conditions: Mean ± SEM of triplicate determinations
T2 construct: purchased Cayman Chemicals Inc. 560131
T2 sequence (P05979 25-600): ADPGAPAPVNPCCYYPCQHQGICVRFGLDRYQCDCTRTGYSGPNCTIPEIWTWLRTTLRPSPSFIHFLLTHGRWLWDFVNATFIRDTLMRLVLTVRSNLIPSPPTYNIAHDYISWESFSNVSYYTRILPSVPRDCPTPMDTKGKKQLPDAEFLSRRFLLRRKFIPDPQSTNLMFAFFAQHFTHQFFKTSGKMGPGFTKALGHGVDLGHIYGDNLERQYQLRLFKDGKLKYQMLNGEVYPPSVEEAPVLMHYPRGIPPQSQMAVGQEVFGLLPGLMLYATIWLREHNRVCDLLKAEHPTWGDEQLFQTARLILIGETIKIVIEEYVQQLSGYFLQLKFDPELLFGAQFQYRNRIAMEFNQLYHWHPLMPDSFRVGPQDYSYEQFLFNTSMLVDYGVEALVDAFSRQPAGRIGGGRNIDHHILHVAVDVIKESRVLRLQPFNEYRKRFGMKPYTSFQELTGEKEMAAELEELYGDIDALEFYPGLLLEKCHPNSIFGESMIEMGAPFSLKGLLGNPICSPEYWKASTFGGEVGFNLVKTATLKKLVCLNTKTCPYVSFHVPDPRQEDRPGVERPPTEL

[7] = tested on: Staphylococcus epidermidis (RCMB 0100183); experiment: Inhibition zone, agar cup diffusion; conditions: RCMB0100183, 24 h, read-out: inhibition zones (IZ) S. epidermidis
[8] = tested on: Bacillus subtilis (RCMB 0100162); experiment: Inhibition zone, agar cup diffusion; conditions: RCMB0100162, 24 h, read-out: inhibition zones (IZ) B. subtillis
[9] = tested on: Salmonella typhi (RCMB 0100104); experiment: Inhibition zone, agar cup diffusion; format: cell-based; conditions: Salmonella enterica, 24 h, read-out: inhibition zones (IZ) S. typhi
[10] = tested on: Proteus vulgaris (RCMB 010085); experiment: Inhibition zone, agar cup diffusion; conditions: RCMB010085, 24 h, read-out: inhibition zones (IZ) P. vulgaris
[11] = tested on: Staphylococcus aureus (RCMB 0100183); experiment: Inhibition zone, agar cup diffusion; conditions: RCMB0100183, 24 h, read-out: inhibition zones (IZ) S. aureus

Row | SMILES | IC50 [1] | SI COX-1/COX-2 [1] | zone of inhibition at 1000 µg/mL [2] | zone of inhibition at 1000 µg/mL [3] | zone of inhibition at 1000 µg/mL [4] | zone of inhibition at 1000 µg/mL [5] | IC50 [6] | zone of inhibition at 1000 µg/mL [7] | zone of inhibition at 1000 µg/mL [8] | zone of inhibition at 1000 µg/mL [9] | zone of inhibition at 1000 µg/mL [10] | zone of inhibition at 1000 µg/mL [11]
1 | O=C(NCc1ccccc1)c1cc(/N=N/c2ccc(S(=O)(=O)Nc3nccs3)cc2)ccc1O [Compound 5f, N-Benzyl-2-hydroxy-5-((4-(N-(thiazol-2-yl)sulfamoyl)phenyl)diazenyl) benzamide] | 0.11 ± 0.003 µM | 88.2 | 16 mm | 27 mm | 25 mm | 16 mm | 9.7 ± 0.06 µM | 36 mm | 17 mm | 16 mm | 17 mm | 24 mm
2 | O=C(NCc1ccccc1)c1cc(/N=N/c2ccc(S(=O)(=O)Nc3ncccn3)cc2)ccc1O [Compound 5g, N-Benzyl-2-hydroxy-5-((4-(N-(pyrimidin-2-yl)sulfamoyl)phenyl)diazenyl) benzamide] | 0.1 ± 0.0003 µM | 109.4 | 14 mm | 30 mm | 26 mm | 16 mm | 10.5 ± 0.08 µM | 32 mm | 20 mm | 13 mm | 17 mm | 26 mm
3 | NS(=O)(=O)c1ccc(/N=N/c2ccc(O)c(C(=O)N3CCCCC3)c2)cc1 [Compound 5h, 4-((4-Hydroxy-3-(piperidine-1-carbonyl)phenyl)diazenyl) benzenesulfonamide] | 0.14 µM | 58.6 | 16 mm | 29 mm | 24 mm | 14 mm | 8.2 ± 0.12 µM | 29 mm | 20 mm | 18 mm | 19 mm | 22 mm
4 | NS(=O)(=O)c1ccc(/N=N/c2ccc(O)c(C(=O)N3CCOCC3)c2)cc1 [Compound 5l, 4-((4-Hydroxy-3-(morpholine-4-carbonyl)phenyl)diazenyl) benzenesulfonamide] | 0.08 ± 0.001 µM | 134.2 | 14 mm | 26 mm | 26 mm | 14 mm | 10.2 ± 0.08 µM | 32 mm | 20 mm | 17 mm | 19 mm | 18 mm
5 | C[C@H]1COc2c(N3CCN(C)CC3)c(F)cc3c(=O)c(C(=O)O)cn1c23 [Levofloxacin, levofloxacin, reference compound] |  |  | 8 mm |  | 20 mm | 11 mm |  |  |  | 11 mm | 15 mm | 
